# Data from patent US10780090B2, “Heteroaryl compounds useful as inhibitors of SUMO activating enzyme” (Millennium Pharmaceuticals, Inc., priority 2014, dated 2020).
# pIC50: −log10 of the molar value.
# Molecular target: recombinant human SAE enzyme (Homo sapiens (Human), UniProt Q9UBT2)
# Experiment: SAE HTRF enzyme assay
# Format: biochemical
# Details: for inhibition at 0.111 µM: read-out: Percent Inhibition; for pIC50: class symbols A/B/C; for IC50: SAE inhibition, class symbols, legend in nM
# Summary of the method: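 Sumoylation of Ubc9-GST by SAE was followed at low ATP (0.5 μM), pH 7.5, 24° C. for 105 min. Product was detected by HTRF with antibody pairs against Flag and GST tags.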
# [1] = SAE inhibition at compound concentration 0.111 μM
# Chain of recombinant human SAE enzyme (Q9UBT2 whole entry): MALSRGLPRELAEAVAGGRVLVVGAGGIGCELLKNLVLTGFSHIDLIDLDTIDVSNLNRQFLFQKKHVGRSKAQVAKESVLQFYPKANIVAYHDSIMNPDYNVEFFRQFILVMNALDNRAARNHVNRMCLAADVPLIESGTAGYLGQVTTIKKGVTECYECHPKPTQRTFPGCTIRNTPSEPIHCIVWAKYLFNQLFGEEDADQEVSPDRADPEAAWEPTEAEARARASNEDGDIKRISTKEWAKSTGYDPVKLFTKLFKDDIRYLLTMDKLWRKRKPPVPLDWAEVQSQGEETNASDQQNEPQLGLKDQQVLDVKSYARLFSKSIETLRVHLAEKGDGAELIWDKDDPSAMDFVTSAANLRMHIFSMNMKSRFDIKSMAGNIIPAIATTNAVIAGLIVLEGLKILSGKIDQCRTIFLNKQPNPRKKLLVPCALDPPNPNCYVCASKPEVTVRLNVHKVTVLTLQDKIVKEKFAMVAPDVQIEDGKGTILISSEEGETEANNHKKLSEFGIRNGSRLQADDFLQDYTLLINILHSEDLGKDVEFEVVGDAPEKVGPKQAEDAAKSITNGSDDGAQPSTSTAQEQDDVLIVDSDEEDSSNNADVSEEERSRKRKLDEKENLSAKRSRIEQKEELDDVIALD
# Chain of recombinant human SAE enzyme (Q9UBE0 whole entry partner): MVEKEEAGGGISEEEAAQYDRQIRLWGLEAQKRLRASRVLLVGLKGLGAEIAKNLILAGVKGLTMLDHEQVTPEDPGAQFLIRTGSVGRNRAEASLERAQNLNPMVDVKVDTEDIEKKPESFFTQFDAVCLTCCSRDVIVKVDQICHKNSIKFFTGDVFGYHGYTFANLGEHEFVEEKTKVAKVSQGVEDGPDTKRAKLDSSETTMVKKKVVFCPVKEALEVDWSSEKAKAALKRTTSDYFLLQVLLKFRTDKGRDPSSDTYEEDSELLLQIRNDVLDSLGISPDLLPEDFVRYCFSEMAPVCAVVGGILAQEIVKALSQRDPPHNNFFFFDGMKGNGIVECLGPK
Compound,inhibition at 0.111 µM (Concentration 0.111 μM) [%],pIC50,Percent Inhibition (Concentration 0.111 μM),Percent Inhibition [1] [%],IC50 [nM]
"CCOc1ccccc1OCc1csc(C(=O)c2cncnc2N[C@@H]2C[C@H](COS(N)(=O)=O)[C@@H](O)C2)c1 [I-156, [(1R,2S,4R)-4-{[5-({4-[(2-ethoxyphenoxy)methyl]-2-thienyl}carbonyl)pyrimidin-4-yl]amino}-2-hydroxycyclopentyl]methyl sulfamate]",92,> 8.00,–,–,–
"NS(=O)(=O)OC[C@H]1C[C@@H](Nc2ncncc2C(=O)c2cc([C@@]3(c4cccc(Cl)c4)CCCN3)cs2)C[C@@H]1O (mixture of isomers) [I-38, [(1R,2S,4R)-4-{[5-({4-[(2S)-2-(3-chlorophenyl)pyrrolidin-2-yl]-2-thienyl}carbonyl)pyrimidin-4-yl]amino}-2-hydroxycyclopentyl]methyl sulfamate and [(1R,2S,4R)-4-{[5-({4-[(2R)-2-(3-chlorophenyl)pyrrolidin-2-yl]-2-thienyl}carbonyl)pyrimidin-4-yl]amino}-2-hydroxycyclopentyl]methyl sulfamate]",–,> 8.00,101,–,–
"C[C@@](O)(c1ccccc1)c1coc(C(=O)c2cncnc2N[C@@H]2C[C@H](COS(N)(=O)=O)[C@@H](O)C2)c1.C[C@](O)(c1ccccc1)c1coc(C(=O)c2cncnc2N[C@@H]2C[C@H](COS(N)(=O)=O)[C@@H](O)C2)c1 (mixture of isomers) [I-58, {(1R,2S,4R)-2-hydroxy-4-[(5-{4-[(1S)-1-hydroxy-1-phenylethyl]-2-furoyl}pyrimidin-4-yl)amino]cyclopentyl}methyl sulfamate and {(1R,2S,4R)-2-hydroxy-4-[(5-{4-[(1R)-1-hydroxy-1-phenylethyl]-2-furoyl}pyrimidin-4-yl)amino]cyclopentyl}methyl sulfamate]",–,> 8.00,96,–,–
"Cc1sc(C(=O)c2cncnc2N[C@@H]2C[C@H](COS(N)(=O)=O)[C@@H](O)C2)cc1[C@H]1OCC(F)(F)c2ccc(Cl)nc21 (single isomer, unassigned) [I-260b, [(1R,2S,4R)-4-{[5-({4-[(8R)-2-chloro-5,5-difluoro-5,8-dihydro-6H-pyrano[3,4-b]pyridin-8-yl]-5-methyl-2-thienyl}carbonyl)pyrimidin-4-yl]amino}-2-hydroxycyclopentyl]methyl sulfamate or [(1R,2S,4R)-4-{[5-({4-[(8S)-2-chloro-5,5-difluoro-5,8-dihydro-6H-pyrano[3,4-b]pyridin-8-yl]-5-methyl-2-thienyl}carbonyl)pyrimidin-4-yl]amino}-2-hydroxycyclopentyl]methyl sulfamate]",–,> 8.00,98,–,–
"Cc1sc(C(=O)c2cncnc2N[C@@H]2C[C@H](COS(N)(=O)=O)[C@@H](O)[C@H]2O)cc1[C@@H]1NCCc2ccc(Br)cc21 (single isomer, unassigned) [I-247b, [(1R,2R,3S,4R)-4-{[5-({4-[(1R)-7-bromo-1,2,3,4-tetrahydroisoquinolin-1-yl]-5-methyl-2-thienyl}carbonyl)pyrimidin-4-yl]amino}-2,3-dihydroxycyclopentyl]methyl sulfamate or [(1R,2R,3S,4R)-4-{[5-({4-[(1S)-7-bromo-1,2,3,4-tetrahydroisoquinolin-1-yl]-5-methyl-2-thienyl}carbonyl)pyrimidin-4-yl]amino}-2,3-dihydroxycyclopentyl]methyl sulfamate]",–,> 8.00,98,–,–
"NS(=O)(=O)OC[C@H]1C[C@@H](Nc2ncncc2C(=O)c2cc([C@@H]3OCC(=O)c4ccccc43)cs2)C[C@@H]1O (mixture of isomers) [I-342, [(1R,2S,4R)-2-hydroxy-4-{[5-({4-[(1R)-4-oxo-3,4-dihydro-1H-isochromen-1-yl]-2-thienyl}carbonyl)pyrimidin-4-yl]amino}cyclopentyl]methyl sulfamate and [(1R,2S,4R)-2-hydroxy-4-{[5-({4-[(1S)-4-oxo-3,4-dihydro-1H-isochromen-1-yl]-2-thienyl}carbonyl)pyrimidin-4-yl]amino}cyclopentyl]methyl sulfamate]",–,–,–,93,< 10
"NS(=O)(=O)OC[C@H]1C[C@@H](Nc2ncncc2C(=O)c2ccc(Cc3cccc(Cl)c3)s2)[C@@H](F)[C@@H]1O [I-205, {(1R,2R,3R,4R)-4-[(5-{[5-(3-Chlorobenzyl)-2-thienyl]carbonyl}pyrimidin-4-yl)amino]-3-fluoro-2-hydroxycyclopentyl}methyl sulfamate]",51,6.00 to 7.00,–,–,–
"N[C@@H](c1cccc(Cl)c1)c1cc(C(=O)c2cncnc2N[C@@H]2C[C@H](COS(N)(=O)=O)[C@@H](O)[C@H]2O)sc1Cl (single isomer, unassigned) [I-14a, [(1R,2R,3S,4R)-4-{[5-({4-[(S)-Amino(3-chlorophenyl)methyl]-5-chloro-2-thienyl)carbonyl)pyrimidin-4-yl]amino}-2,3-dihydroxycyclopentyl]methyl sulfamate or [(1R,2R,3S,4R)-4-{[5-({4-[(R)-Amino(3-chlorophenyl)methyl]-5-chloro-2-thienyl}carbonyl)pyrimidin-4-yl]amino}-2,3-dihydroxycyclopentyl]methyl sulfamate]",–,> 8.00,101,–,–
"NS(=O)(=O)OC[C@H]1C[C@@H](Nc2ncncc2C(=O)c2cc([C@@H]3OCCc4ccc(Cl)cc43)c(Cl)s2)C[C@@H]1O (single isomer, unassigned) [I-282a, [(1R,2S,4R)-4-{[5-({5-chloro-4-[(1R)-7-chloro-3,4-dihydro-1H-isochromen-1-yl]-2-thienyl}carbonyl)pyrimidin-4-yl]amino}-2-hydroxycyclopentyl]methyl sulfamate or [(1R,2S,4R)-4-{[5-({5-chloro-4-[(1S)-7-chloro-3,4-dihydro-1H-isochromen-1-yl]-2-thienyl}carbonyl)pyrimidin-4-yl]amino}-2-hydroxycyclopentyl]methyl sulfamate]",–,–,–,37,100 to 1000
"NS(=O)(=O)OC[C@H]1C[C@@H](Nc2ncncc2C(=O)c2cc([C@H](O)C3CCOCC3)c(Cl)s2)C[C@@H]1O (mixture of isomers) [I-174, [(1R,2S,4R)-4-{[5-({5-chloro-4-[(R)-hydroxy(tetrahydro-2H-pyran-4-yl)methyl]-2-thienyl}carbonyl)pyrimidin-4-yl]amino}-2-hydroxycyclopentyl]methyl sulfamate and [(1R,2S,4R)-4-{[5-({5-chloro-4-[(S)-hydroxy(tetrahydro-2H-pyran-4-yl)methyl]-2-thienyl}carbonyl)pyrimidin-4-yl]amino}-2-hydroxycyclopentyl]methyl sulfamate]",–,7.00 to 8.00,89,–,–
"Cc1sc(C(=O)c2cncnc2N[C@@H]2C[C@H](COS(N)(=O)=O)[C@@H](O)C2)cc1CN1CCc2cccnc21 [I-171, {(1R,2S,4R)-4-[(5-{[4-(2,3-dihydro-1H-pyrrolo[2,3-b]pyridin-1-ylmethyl)-5-methyl-2-thienyl]carbonyl}pyrimidin-4-yl)amino]-2-hydroxycyclopentyl}methyl sulfamate]",90,7.00 to 8.00,–,–,–
"NS(=O)(=O)OC[C@H]1C[C@@H](Nc2ncncc2C(=O)c2cc(Cc3cccc(Cl)c3)co2)C[C@@H]1O [I-79, [(1R,2S,4R)-4-({5-[4-(3-chlorobenzyl)-2-furoyl]pyrimidin-4-yl}amino)-2-hydroxycyclopentyl]methyl sulfamate]",97,–,–,–,–
"Cc1sc(C(=O)c2cncnc2N[C@@H]2C[C@H](COS(N)(=O)=O)[C@@H](O)[C@H]2O)cc1[C@@H]1OCCc2ccccc21 (single isomer, unassigned) [I-250b, [(1R,2R,3S,4R)-4-{[5-({4-[(1R)-3,4-dihydro-1H-isochromen-1-yl]-5-methyl-2-thienyl}carbonyl)pyrimidin-4-yl]amino}-2,3-dihydroxycyclopentyl]methyl sulfamate or [(1R,2R,3S,4R)-4-{[5-({4-[(1S)-3,4-dihydro-1H-isochromen-1-yl]-5-methyl-2-thienyl}carbonyl)pyrimidin-4-yl]amino}-2,3-dihydroxycyclopentyl]methyl sulfamate]",–,> 8.00,98,–,–
"COCc1cc(C(=O)c2cncnc2N[C@@H]2C[C@H](COS(N)(=O)=O)[C@@H](O)C2)sc1Cl [I-218, {(1R,2S,4R)-4-[(5-{[5-Chloro-4-(methoxymethyl)-2-thienyl]carbonyl}pyrimidin-4-yl)amino]-2-hydroxycyclopentyl}methyl sulfamate]",33,6.00 to 7.00,–,–,–
"NS(=O)(=O)OC[C@H]1C[C@@H](Nc2ncncc2C(=O)c2cc(Cc3cccc(Br)n3)cs2)C[C@@H]1O [I-53, [(1R,2S,4R)-4-{[5-({4-[(6-bromopyridin-2-yl)methyl]-2-thienyl}carbonyl)pyrimidin-4-yl]amino}-2-hydroxycyclopentyl]methyl sulfamate]",99,–,–,–,–
"[(1R,2S,4R)-4-{[5-({4-[(1R)-7-bromo-1,2,3,4-tetrahydroisoquinolin-1-yl]-5-chloro-2-thienyl}carbonyl)pyrimidin-4-yl]amino}-2-hydroxycyclopentyl]methyl sulfamate and [(1R,2S,4R)-4-{[5-({4-[(1S)-7-bromo-1,2,3,4-tetrahydroisoquinolin-1-yl]-5-chloro-2-thienyl}carbonyl)pyrimidin-4-yl]amino}-2-hydroxycyclopentyl]methyl sulfamate [I-251]",–,> 8.00,100,–,–
"CC(O)(c1cccc(Cl)c1)c1csc(C(=O)c2cncnc2N[C@@H]2C[C@H](COS(N)(=O)=O)[C@@H](O)C2)c1 (single isomer, unassigned) [I-5b, [(1R,2S,4R)-4-{[5-({4-[(1R)-1-(3-chlorophenyl)-1-hydroxyethyl]-2-thienyl}carbonyl)pyrimidin-4-yl]amino}-2-hydroxycyclopentyl]methyl sulfamate or [(1R,2S,4R)-4-{[5-({4-[(1S)-1-(3-chlorophenyl)-1-hydroxyethyl]-2-thienyl}carbonyl)pyrimidin-4-yl]amino}-2-hydroxycyclopentyl]methyl sulfamate]",–,> 8.00,100,–,–
